Source: patent US11732003B2, “Mechanical method of maintaining narrow residence time distributions in continuous flow systems” (priority 2017, dated 2023)
Like-named read-outs stand apart in the source and are kept apart here.

Tests used:
[1] = system: Phi6; experiment: Static detergent-based virus inactivation, plaque assay for infectivity; type: cell-based, bacteriophage virus
Protocol: The purpose of this study was to examine detergent-based virus inactivation kinetics. In this representative experiment, two different concentrations (0.1% and 1.0% v/v) of a detergent, Triton X-100, were used to inactivate a bacteriophage virus, Phi6.
The virus spike was added and vortexed to ensure a well-mixed system. […] Detergent was added to reach the desired concentrations of 0.1% and 1.0% v/v. At various time points, a sample was removed and quenched by adding it to buffer at a 1:1000 dilution ratio. The tubes were vortexed after the detergent addition.

[2] = system: Phi6; details: static, pH 3.6 (8.7 M acetic acid), mAb 5 mg/mL, 22-25° C.
Protocol: In this representative experiment, the purpose was to evaluate the inactivation kinetics of an enveloped bacteriophage virus (Phi6) at low pH conditions. The objective was to determine the exposure time required for complete inactivation.
A monoclonal antibody (mAb) was purified by standard Protein A chromatography and prepared at a concentration of 5 mg/mL. […] Human serum albumin (HSA) (0.25% v/v) was added for Phi6 stability. Following confirmation of pH, the virus spike was added to the sample reservoir containing the mAb and vortexed to ensure a well-mixed system. The Phi6 target spike level was 1×10^7 pfu (plaque forming units)/mL. Within 0.3 minutes of the virus addition, a 1 mL sample was removed and transferred to a tube containing a previously determined volume of 2 M Tris Base, pH 10 to neutralize (pH 6-8) the sample and quench the inactivation step. The tube was vortexed after the base addition. This process of removing and neutralizing a sample was repeated for each time point. These experiments were carried out at room temperature, 22-25° C. Control samples at the initial and final time points were also analyzed. For the control samples, the pH was maintained at the feed pH level (pH 6.3) but the samples were diluted similarly to the actual samples using the background buffer at pH 6.3.

[3] = system: Phi6; details: in-line continuous flow, 1 M acetic acid added at 0.75 mL/min to 1 mL/min feed
Protocol: This representative example describes the use of a continuous flow system to carry out low pH virus inactivation.
A system consisting of a main feed pump, an acid addition pump, and a base addition pump was used to inactivate virus under continuous flow conditions. A mAb solution was spiked with Phi6 and was connected to the main feed pump inlet. The Phi6 target spike level was 1×10^8 pfu/mL. […] The feed flow rate was set to 1 mL/min. Acid was added into the main stream at a flow rate of 0.75 mL/min. The fluid then passed through a static mixer and a length of tubing designed to contain a particular volume (targeting a desired residence time). Different lengths of tubing were used to contain the required volume for each target average residence time (1, 2, 3, 4, 5, 15 min) after accounting for the dead volume from the valves and pH probe between the acid addition point and the beginning of the incubation chamber. […] At the outlet of the incubation chamber, the material was neutralized by the addition of base into the main line at a flow rate of 0.4 mL/min. The fluid passed through another static mixer and then the neutralized samples were collected at the outlet and assayed for infectivity using the plaque assay. These experiments were carried out at room temperature, 22-25° C. Control samples were also assayed. For the control samples, the pH was maintained at the feed pH level but the samples were diluted similarly to the actual samples using the background buffer.

[4] = system: xenotropic murine leukemia virus (XMuLV); details: static, mAb 18 g/L; for Time to Complete Inactivation: XMuLV
Protocol: The purpose of this study was to evaluate the virus inactivation kinetics of xenotropic murine leukemia virus (XMuLV, an enveloped virus commonly used for clearance studies of monoclonal antibody products, under low pH conditions. The objective was to determine the exposure time required for complete inactivation.
Following confirmation of pH, the virus spike was added to the sample reservoir containing the mAb and vortexed to ensure a well-mixed system. The XMuLV target spike level was 1×10^7 TCID50/mL (TCID50=Tissue Culture Infection Dose) (4% spike v/v). Within 0.3 minutes of the virus addition, a 1 mL sample was removed and transferred to a tube containing a previously determined volume of 2 M Tris Base to neutralize (pH 6-8) the sample and quench the inactivation step. The tube was vortexed after the base addition. This process of removing and neutralizing a sample was repeated for each time point. These experiments were carried out at room temperature, 22-25° C. Control samples at the initial and final time points were also analyzed. For the control samples, the pH was maintained at the feed pH level but the samples were diluted similarly to the actual samples using the background buffer.
The neutralized samples were assayed for infectivity using the cell-based TCID50 infectivity assay using PG4 indicator cells (Bolton G, Cabatingan M, Rubino M, et al. Normal-flow virus filtration:detection and assessment of the endpoint in bio-processing. Biotechnol Appl Biochem 2005; 42: 133-42). To mitigate cytotoxicity and quench the virus inactivation, samples were diluted 1:50 with ten-fold serial dilutions in cell culture media and then 100 μl aliquots of each dilution were added to a 96-well plate. Following incubation at 37° C. in 5% CO2 for 7 days, infected wells were visually assessed for cytopathic effect (CPE). Titers and LRVs were calculated using standard methods (ICH. Guidance on Viral Safety Evaluation of Biotechnology Products Derived From Cell Lines of Human or Animal Origin. In: Use ICoHoTRfRoPfH, ed. Geneva, Switzerland: ICH, 1998). To determine the LRV at each time point, the titer of the time point was subtracted from the titer of the closest control time point.

In the case of Triton X-100, the “Phi6 LRV” value ([1]; 0.1% v/v Triton X-100, mAb 15 mg/mL, inactivation time 1 min) is reported as at least 5.2, the “Phi6 LRV” value ([1]; 0.1% v/v Triton X-100, mAb 15 mg/mL, inactivation time 2 min) is reported as at least 5.2 and the “Phi6 LRV” value ([1]; 0.1% v/v Triton X-100, mAb 15 mg/mL, inactivation time 3 min) is reported as at least 5.2. The “Phi6 LRV” value ([1]; 0.1% v/v Triton X-100, mAb 15 mg/mL, inactivation time 4 min) was at least 5.2, the “Phi6 LRV” value ([1]; 0.1% v/v Triton X-100, mAb 15 mg/mL, inactivation time 5 min) was at least 5.2 and the “Phi6 LRV” value ([1]; 0.1% v/v Triton X-100, mAb 15 mg/mL, inactivation time 15 min) was at least 5.2. The “Phi6 LRV” value ([1]; 0.1% v/v Triton X-100, mAb 15 mg/mL, inactivation time 30 min) was at least 5.2, the “Phi6 LRV” value ([1]; 1.0% v/v Triton X-100, mAb 15 mg/mL, inactivation time 1 min) was at least 6.2 and the “Phi6 LRV” value ([1]; 1.0% v/v Triton X-100, mAb 15 mg/mL, inactivation time 2 min) was at least 6.2. For the same molecule, the “Phi6 LRV” value ([1]; 1.0% v/v Triton X-100, mAb 15 mg/mL, inactivation time 3 min) was at least 6.2, the “Phi6 LRV” value ([1]; 1.0% v/v Triton X-100, mAb 15 mg/mL, inactivation time 4 min) was at least 6.2 and the “Phi6 LRV” value ([1]; 1.0% v/v Triton X-100, mAb 15 mg/mL, inactivation time 5 min) was at least 6.2. The “Phi6 LRV” value ([1]; 1.0% v/v Triton X-100, mAb 15 mg/mL, inactivation time 15 min) was at least 6.2 and the “Phi6 LRV” value ([1]; 1.0% v/v Triton X-100, mAb 15 mg/mL, inactivation time 30 min) was at least 6.2.

For `CC(=O)O` [acetic acid], the “Phi6 Log Reduction Values (LRV)” value ([2]; inactivation time 1 min) was at least 6.8, the “Phi6 Log Reduction Values (LRV)” value ([2]; inactivation time 2 min) was at least 6.8 and the “Phi6 Log Reduction Values (LRV)” value ([2]; inactivation time 3 min) was at least 6.8. For the same molecule, the “Phi6 Log Reduction Values (LRV)” value ([2]; inactivation time 4 min) was at least 6.8, the “Phi6 Log Reduction Values (LRV)” value ([2]; inactivation time 5 min) was at least 6.8 and the “Phi6 Log Reduction Values (LRV)” value ([2]; inactivation time 15 min) was at least 6.8. For the same molecule, the “Phi6 LRV” value ([3]; average residence time 1 min) was at least 6.8, the “Phi6 LRV” value ([3]; average residence time 2 min) was at least 6.8 and the “Phi6 LRV” value ([3]; average residence time 3 min) was at least 6.8. The “Phi6 LRV” value ([3]; average residence time 4 min) was at least 6.8, the “Phi6 LRV” value ([3]; average residence time 5 min) was at least 6.8 and the “Phi6 LRV” value ([3]; average residence time 15 min) was at least 6.8. For the same molecule, the “Time to Complete Inactivation” value ([4]; pH 4.0 (8.7 M acetic acid)) was at most 15 min, the “Time to Complete Inactivation” value ([4]; pH 4.2 (8.7 M acetic acid)) was at most 30 min and the “XMuLV LRV” value ([4]; pH 3.5 (8.7 M acetic acid), inactivation time 0.3 min) was 4.0. For the same molecule, the “XMuLV LRV” value ([4]; pH 3.5 (8.7 M acetic acid), inactivation time 1 min) was at least 5.4, the “XMuLV LRV” value ([4]; pH 3.5 (8.7 M acetic acid), inactivation time 2 min) was at least 5.4 and the “XMuLV LRV” value ([4]; pH 3.5 (8.7 M acetic acid), inactivation time 3 min) was at least 5.4. For the same molecule, the “XMuLV LRV” value ([4]; pH 3.5 (8.7 M acetic acid), inactivation time 4 min) was at least 5.4, the “XMuLV LRV” value ([4]; pH 3.5 (8.7 M acetic acid), inactivation time 5 min) was at least 5.5 and the “XMuLV LRV” value ([4]; pH 3.5 (8.7 M acetic acid), inactivation time 15 min) was at least 5.5. The “XMuLV LRV” value ([4]; pH 3.5 (8.7 M acetic acid), inactivation time 30 min) was at least 5.5, the “XMuLV LRV” value ([4]; pH 3.5 (8.7 M acetic acid), inactivation time 60 min) was at least 5.5 and the “XMuLV LRV” value ([4]; pH 3.7 (8.7 M acetic acid), inactivation time 0.3 min) was 3.6. The “XMuLV LRV” value ([4]; pH 3.7 (8.7 M acetic acid), inactivation time 1 min) was at least 5.5, the “XMuLV LRV” value ([4]; pH 3.7 (8.7 M acetic acid), inactivation time 2 min) was at least 5.5 and the “XMuLV LRV” value ([4]; pH 3.7 (8.7 M acetic acid), inactivation time 3 min) was at least 5.5. For the same molecule, the “XMuLV LRV” value ([4]; pH 3.7 (8.7 M acetic acid), inactivation time 4 min) was at least 5.5, the “XMuLV LRV” value ([4]; pH 3.7 (8.7 M acetic acid), inactivation time 5 min) was at least 5.7 and the “XMuLV LRV” value ([4]; pH 3.7 (8.7 M acetic acid), inactivation time 15 min) was at least 5.7. For the same molecule, the “XMuLV LRV” value ([4]; pH 3.7 (8.7 M acetic acid), inactivation time 30 min) was at least 5.7, the “XMuLV LRV” value ([4]; pH 3.7 (8.7 M acetic acid), inactivation time 60 min) was at least 5.7 and the “XMuLV LRV” value ([4]; pH 4.0 (8.7 M acetic acid), inactivation time 0.3 min) was 1.6. For the same molecule, the “XMuLV LRV” value ([4]; pH 4.0 (8.7 M acetic acid), inactivation time 1 min) was 4.7, the “XMuLV LRV” value ([4]; pH 4.0 (8.7 M acetic acid), inactivation time 2 min) was 5.2 and the “XMuLV LRV” value ([4]; pH 4.0 (8.7 M acetic acid), inactivation time 3 min) was 5.3. The “XMuLV LRV” value ([4]; pH 4.0 (8.7 M acetic acid), inactivation time 4 min) was 5.2, the “XMuLV LRV” value ([4]; pH 4.0 (8.7 M acetic acid), inactivation time 5 min) was 5.6 and the “XMuLV LRV” value ([4]; pH 4.0 (8.7 M acetic acid), inactivation time 15 min) was at least 5.4. The “XMuLV LRV” value ([4]; pH 4.0 (8.7 M acetic acid), inactivation time 30 min) was at least 5.4, the “XMuLV LRV” value ([4]; pH 4.0 (8.7 M acetic acid), inactivation time 60 min) was at least 5.4 and the “XMuLV LRV” value ([4]; pH 4.2 (8.7 M acetic acid), inactivation time 0.3 min) was 1.5. For the same molecule, the “XMuLV LRV” value ([4]; pH 4.2 (8.7 M acetic acid), inactivation time 1 min) was 3.3, the “XMuLV LRV” value ([4]; pH 4.2 (8.7 M acetic acid), inactivation time 2 min) was 3.5 and the “XMuLV LRV” value ([4]; pH 4.2 (8.7 M acetic acid), inactivation time 3 min) was 3.9. The “XMuLV LRV” value ([4]; pH 4.2 (8.7 M acetic acid), inactivation time 4 min) was 4.0, the “XMuLV LRV” value ([4]; pH 4.2 (8.7 M acetic acid), inactivation time 5 min) was 4.2 and the “XMuLV LRV” value ([4]; pH 4.2 (8.7 M acetic acid), inactivation time 15 min) was 4.6. The “XMuLV LRV” value ([4]; pH 4.2 (8.7 M acetic acid), inactivation time 30 min) was at least 5.7 and the “XMuLV LRV” value ([4]; pH 4.2 (8.7 M acetic acid), inactivation time 60 min) was at least 5.7.
